Assay results from patent publication US20150231240A1, “ANTI-C16ORF54 ANTIBODIES AND METHODS OF USE THEREOF” (priority 2012, published 2015).
Square brackets hold non-standard residues; d marks the D form. Peptide text beside a SMILES is read from it. * marks the point of attachment. Dolaproine = CO[C@@H]([C@@H]1CCCN1)[C@@H](C)C(=O)O; Dil = CC[C@H](C)[C@H](NC)[C@@H](CC(=O)O)OC; X1 = C[C@@H](N*)[C@@H](O)c1ccccc1; NMeV = CN[C@H](C(=O)O)C(C)C

How the values were obtained:
[1] = tested on: C16orf54 expressing Sarcoma line 1; assay: Cell viability assay, C16orf54 expressing sarcoma line 1; format: cell-based, murine; conditions: 1000 cells/well, 72 hours
Experimental: (§1) Murine sarcoma cell lines that express C16orf54 were prepared by virus infection of sarcoma cell lines. A PCR-amplified C16orf54 gene was cloned into a murine stem cell virus expression vector with a neomycin resistance gene and sequenced to confirm the identity. To prepare virus particles, HEK 293t cells with retroviral packaging proteins were transfected, in the presence of transfection reagent FUGENE HD (Roche), with the retroviral expression vector containing C16orf54. The virus particles collected from the supernatant of the culture media 48 hours after transfection were used to infect the sarcoma cells. After G418 selection, stable transfectants were pooled and then cloned by limiting dilution. Clones were then picked and expanded in the presence of antibiotics. Clones with the highest expression level of C16orf54 as measured by flow cytometry were expanded and banked. These cell lines were then used to immunize the syngeneic mice for antibody production and in the binding assays for antibody selection as follows.
(§2) The anti-tumor activity of unconjugated anti-C16orf54 antibodies and anti-C16orf54 antibodies that were directly conjugated with […] (ADCs) was determined in a cell viability assay using several C16orf54-expressing cell lines. Cells were plated at 1000 cells/well and incubated in the presence of antibodies or ADCs for 72 hours.

[2] = tested on: C16orf54 expressing sarcoma line 2; assay: Cell viability assay, C16orf54 expressing sarcoma line 2; format: cell-based, murine; conditions: 1000 cells/well, 72 hours
Experimental: as §1, §2

CC[C@H](C)[C@@H]([C@@H](CC(=O)N1CCC[C@H]1[C@H](OC)[C@@H](C)C(=O)N[C@H](C)[C@@H](O)c1ccccc1)OC)N(C)C(=O)[C@@H](NC(=O)[C@@H](NC)C(C)C)C(C)C [MMAE, monomethylauristatin E] (H-[NMeV]V[Dil][Dolaproine]-X1)
IC50 [1]: 0.4 nM
IC50 [2]: 4.1 nM
